Results reported in patent US10966426B2, “Herbicidal compositions comprising phenylpyrimidines” (BASF SE, priority 2016, dated 2021).
“And” between values parts separate entries of the source, which are not always exact repeats. Equal entries are not always repeated.

Columns and labels:
Format in all cases: in vivo
Avena fatua [1] = assay: greenhouse pre-emergence treatment, AVEFA; conditions: AVEFA
Summary of the method: (§1)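 Damage rated on 0 to 100 scale (0 = normal growth, 100 = no emergence or total above-ground kill) after 2-4 weeks at species-dependent 10-25° C or 20-35° C. Seeds sown per species in loamy sand, ~3.0% humus, treated right after sowing with aqueous spray of single actives or 10% emulsion-concentrate mixtures, then hooded; additive expectation by Colby.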

Ambrosia elatior = assay: greenhouse pre-emergence treatment, AMBEL; conditions: AMBEL
Summary of the method: as §1

Poa annua = assay: greenhouse post-emergence treatment, POAAN; conditions: POAAN
Summary of the method: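 Seeds sown per species in pots of loamy sand; seedlings either grown in place or transplanted days before treatment. Post-emergence spray of water-based liquor at 3–15 cm height. Injury rated 0–100 over 2 to 4 weeks.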

Papaver rhoeas = assay: greenhouse post-emergence treatment, PAPRH; conditions: PAPRH
Summary of the method: (§2)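 Foliar application to greenhouse-grown plants 3–15 cm tall in humus-containing loamy sand; response assessed on a 0–100 scale after 2–4 weeks, with Colby's E=X+Y−(X·Y/100) as the additive expectation.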

Avena fatua [2] = assay: greenhouse post-emergence treatment, AVEFA; conditions: AVEFA
Summary of the method: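 Pot trial in loamy sand with about 3.0% humus; plants sown in place or transplanted as seedlings a few days before treatment, kept at 10-25° C or 20-35° C by species, water as solvent. Damage scored 0 (none) to 100 (full destruction) over 2 to 4 weeks; combination expectation by Colby, E=X+Y−(X·Y/100).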

Matricaria chamomilla = assay: greenhouse post-emergence treatment, MATCH; conditions: 20 DAT, MATCH
Summary of the method: as §2

[3] = Ex. 5 solo, 62.5 gai/ha, 20 DAT
[4] = Ex. 5 solo, 62.5 gai/ha, 21 DAT

O=C(O)c1nc(C2CC2)ncc1-c1ccccc1Cl [Ex. 5]
% activity, solo application (Avena fatua [1]; 250 gai/ha, 20 DAT, Table X1): 90%
% activity (Avena fatua [1]; 20 DAT, solo Ex. 5 62.5 gai/ha): 75%
% activity (Avena fatua [1]; solo Ex. 5 125 gai/ha, 20 DAT): 90%
% activity (Avena fatua [1]; [3]): 75%
% activity (Avena fatua [1]; Ex. 5 solo, 125 gai/ha, 20 DAT): 90%
% activity (Avena fatua [1]; Table X9, 21 DAT, solo Ex. 5 250 gai/ha): 90%
% activity (Avena fatua [1]; Table X13, 20 DAT, solo Ex. 5 31.25 gai/ha): 65%
% activity (Avena fatua [1]; Table X13, 20 DAT, solo Ex. 5 62.5 gai/ha): 80%
% activity (Avena fatua [1]; Table X13, 20 DAT, solo Ex. 5 125 gai/ha): 85%
% activity, solo application (Ambrosia elatior; 31.25 gai/ha, 20 DAT, Table X1): 30%
% activity, solo application (Ambrosia elatior; 62.5 gai/ha, 20 DAT, Table X1): 45%
% activity, solo application (Ambrosia elatior; 62.5 gai/ha, 20 DAT, Table X2): 0%
% activity, solo application (Ambrosia elatior; 62.5 gai/ha, 20 DAT, Table X6): 0%
% activity, solo application (Ambrosia elatior; 250 gai/ha, 20 DAT, Table X1): 98%
% activity (Ambrosia elatior; 20 DAT, solo Ex. 5 31.25 gai/ha): 10%
% activity (Ambrosia elatior; 20 DAT, solo Ex. 5 31.25 gai/ha (Table X70)): 20%
% activity (Ambrosia elatior; 20 DAT, solo Ex. 5 62.5 gai/ha): 70%
% activity (Ambrosia elatior; 20 DAT, solo Ex. 5 125 gai/ha): 85%
% activity (Ambrosia elatior; [3]): 70%
% activity (Ambrosia elatior; Table X10, 20 DAT, solo Ex. 5 31.25 gai/ha): 30%
% activity (Ambrosia elatior; Table X10, 20 DAT, solo Ex. 5 62.5 gai/ha): 45%
% activity (Ambrosia elatior; Table X11, 20 DAT, solo Ex. 5 62.5 gai/ha): 45%
% activity (Ambrosia elatior; solo, 62.5 gai/ha, 20 DAT): 70%
% activity (Ambrosia elatior; solo, 125 gai/ha, 21 DAT): 70%
% activity (Poa annua; solo Ex. 5 62.5 gai/ha, 20 DAT): 80%
% activity (Poa annua; solo Ex. 5 125 gai/ha, 20 DAT): 80%
% activity (Poa annua; solo Ex. 5 125 gai/ha, 21 DAT): 85%
% activity (Poa annua; solo Ex. 5 250 gai/ha, 21 DAT): 85%
% activity (Poa annua; Table X8, 20 DAT, solo Ex. 5 125 gai/ha): 90%
% activity (Poa annua; Table X8, 20 DAT, solo Ex. 5 250 gai/ha): 90%
% activity (Poa annua; solo, 62.5 gai/ha, 20 DAT): 85%
% activity (Poa annua; solo, 125 gai/ha, 20 DAT): 85%
% activity (Poa annua; solo, 250 gai/ha, 20 DAT): 85%
% activity, solo application (Papaver rhoeas; 62.5 gai/ha, 20 DAT, Table X3): 20%
% activity, solo application (Papaver rhoeas; 125 gai/ha, 20 DAT, Table X3): 75%
% activity, solo application (Papaver rhoeas; 125 gai/ha, 20 DAT, Table X4): 5%
% activity, solo application (Papaver rhoeas; 125 gai/ha, 20 DAT, Table X5): 30%
% activity (Papaver rhoeas; [3]): 25%
% activity (Papaver rhoeas; [4]): 60%
% activity (Papaver rhoeas; 20 DAT, solo Ex. 5 62.5 gai/ha): 70%
% activity (Papaver rhoeas; 20 DAT, solo Ex. 5 125 gai/ha): 65%
% activity (Papaver rhoeas; 20 DAT, solo Ex. 5 125 gai/ha (Table X66)): 65%
% activity (Papaver rhoeas; 21 DAT, solo Ex. 5 125 gai/ha): 60%
% activity (Papaver rhoeas; 21 DAT, solo Ex. 5 250 gai/ha): 80%
% activity (Papaver rhoeas; solo Ex. 5 62.5 gai/ha, 20 DAT): 0%
% activity (Papaver rhoeas; solo Ex. 5 62.5 gai/ha, 21 DAT): 0%
% activity (Papaver rhoeas; solo Ex. 5 125 gai/ha, 21 DAT): 10%
% activity (Papaver rhoeas; solo Ex. 5 250 gai/ha, 20 DAT): 65%
% activity (Papaver rhoeas; solo Ex. 5 250 gai/ha, 21 DAT): 65%
% activity (Papaver rhoeas; solo, 250 gai/ha, 20 DAT): 70% and 75%
% activity, solo application (Avena fatua [2]; 125 gai/ha, 20 DAT, Table X4): 75%
% activity, solo application (Avena fatua [2]; 125 gai/ha, 20 DAT, Table X5): 70%
% activity, solo application (Avena fatua [2]; 250 gai/ha, 20 DAT, Table X5): 75%
% activity (Avena fatua [2]; 20 DAT, solo Ex. 5 125 gai/ha): 85%
% activity (Avena fatua [2]; 20 DAT, solo Ex. 5 250 gai/ha): 85%
% activity (Avena fatua [2]; solo Ex. 5 62.5 gai/ha, 20 DAT): 68%
% activity (Avena fatua [2]; solo Ex. 5 62.5 gai/ha, 20 DAT, 2nd series of rows): 75%
% activity (Avena fatua [2]; solo Ex. 5 125 gai/ha, 20 DAT): 70%
% activity (Avena fatua [2]; solo Ex. 5 250 gai/ha, 20 DAT): 75% and 70%
% activity (Avena fatua [2]; solo Ex. 5 500 gai/ha, 20 DAT): 75%
% activity (Avena fatua [2]; [4]): 80%
% activity (Avena fatua [2]; Ex. 5 solo, 125 gai/ha, 21 DAT): 80%
% activity (Avena fatua [2]; Ex. 5 solo, 250 gai/ha, 21 DAT): 85%
% activity (Avena fatua [2]; Table X12, 20 DAT, solo Ex. 5 31.25 gai/ha): 70%
% activity (Avena fatua [2]; Table X12, 20 DAT, solo Ex. 5 62.5 gai/ha): 75% and 80%
% activity (Avena fatua [2]; Table X12, 20 DAT, solo Ex. 5 125 gai/ha): 85%
% activity (Avena fatua [2]; Table X12, 20 DAT, solo Ex. 5 250 gai/ha): 90%
% activity (Avena fatua [2]; solo, 62.5 gai/ha, 20 DAT): 70% and 55%
% activity (Avena fatua [2]; solo, 125 gai/ha, 20 DAT): 75% and 80% and 60%
% activity (Avena fatua [2]; solo, 250 gai/ha, 20 DAT): 80%
% activity, solo application (Matricaria chamomilla; 62.5 gai/ha, Table X3): 30%
% activity, solo application (Matricaria chamomilla; 125 gai/ha, Table X3): 30%
% activity, solo application (Matricaria chamomilla; 125 gai/ha, Table X4): 40%
% activity, solo application (Matricaria chamomilla; 125 gai/ha, Table X5): 10%
% activity, solo application (Matricaria chamomilla; 125 gai/ha, Table X7): 30%
% activity, solo application (Matricaria chamomilla; 250 gai/ha, Table X3): 70%
% activity, solo application (Matricaria chamomilla; 250 gai/ha, Table X4): 40%
